Three molecules from ChEMBL document CHEMBL5696442, “Discovery of type II inhibitors of TGFβ-activated kinase 1 (TAK1) and mitogen-activated protein kinase kinase kinase kinase 2 (MAP4K2)” (J Med Chem, 2015) can be followed below.

Assay [1] addresses Mitogen-activated protein kinase 14 (Homo sapiens, UniProt Q16539). Kind of assay: Inhibition of p38 alpha Lys2 labeling site in human A-375 cells at 5 uM by KiNativ Profiling analysis relative to control. In kind it is cell-based.
The target of assay [2] is Serine/threonine-protein kinase BRSK1 (Homo sapiens) (UniProt Q8TDC3). The experiment in a line: Inhibition of BRSK1 (unknown origin) at 1 uM by Ambit Kinomescan binding assay relative to control; values are per cent of control.
Sequence of Serine/threonine-protein kinase BRSK1 (Homo sapiens) (Q8TDC3 whole entry): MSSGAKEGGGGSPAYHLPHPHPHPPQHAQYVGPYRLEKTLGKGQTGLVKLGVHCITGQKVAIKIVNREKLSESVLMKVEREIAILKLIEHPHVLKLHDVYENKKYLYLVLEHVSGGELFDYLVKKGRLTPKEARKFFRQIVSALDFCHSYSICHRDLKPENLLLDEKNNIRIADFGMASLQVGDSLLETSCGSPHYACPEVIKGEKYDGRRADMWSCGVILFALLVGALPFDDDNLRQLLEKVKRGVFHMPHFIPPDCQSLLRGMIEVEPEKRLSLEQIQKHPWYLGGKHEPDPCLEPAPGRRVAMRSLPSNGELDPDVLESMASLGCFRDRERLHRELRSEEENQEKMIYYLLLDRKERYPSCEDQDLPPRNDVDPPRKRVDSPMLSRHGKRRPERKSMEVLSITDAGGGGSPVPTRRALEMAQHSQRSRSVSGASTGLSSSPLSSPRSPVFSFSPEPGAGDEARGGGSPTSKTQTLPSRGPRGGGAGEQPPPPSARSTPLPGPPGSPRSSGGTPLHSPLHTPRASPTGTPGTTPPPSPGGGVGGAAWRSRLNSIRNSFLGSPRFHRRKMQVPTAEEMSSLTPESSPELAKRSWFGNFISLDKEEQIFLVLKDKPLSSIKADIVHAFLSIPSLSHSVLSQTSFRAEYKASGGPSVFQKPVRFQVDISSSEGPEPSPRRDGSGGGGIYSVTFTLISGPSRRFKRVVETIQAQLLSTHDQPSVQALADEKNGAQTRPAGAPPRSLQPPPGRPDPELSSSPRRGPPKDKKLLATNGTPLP
The target of assay [3] is T1, Serine/threonine-protein kinase 3 (Homo sapiens) (UniProt Q13188).
T1 sequence (whole entry): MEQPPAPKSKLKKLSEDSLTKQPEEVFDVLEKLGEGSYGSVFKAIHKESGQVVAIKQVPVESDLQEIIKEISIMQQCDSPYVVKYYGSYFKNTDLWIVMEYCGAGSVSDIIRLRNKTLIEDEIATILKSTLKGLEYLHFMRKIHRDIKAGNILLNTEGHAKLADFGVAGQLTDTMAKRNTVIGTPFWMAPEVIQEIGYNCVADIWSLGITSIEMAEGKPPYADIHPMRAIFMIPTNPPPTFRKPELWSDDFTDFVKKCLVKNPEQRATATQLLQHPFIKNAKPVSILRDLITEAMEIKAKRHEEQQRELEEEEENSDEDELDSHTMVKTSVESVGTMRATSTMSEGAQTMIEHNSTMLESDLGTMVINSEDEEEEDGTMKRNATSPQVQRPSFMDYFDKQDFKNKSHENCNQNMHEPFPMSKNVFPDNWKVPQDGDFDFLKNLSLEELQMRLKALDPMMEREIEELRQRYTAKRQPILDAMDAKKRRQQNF
The experiment in a line: Inhibition of MST2 (unknown origin) at 1 uM by Ambit Kinomescan binding assay relative to control.

In assay [4] the target is Cyclin-dependent kinase 18 (Homo sapiens) (UniProt Q07002). Kind of assay: Inhibition of PCTAIRE3 Lys1 labeling site harbouring SKLTENLVALKEIRLEHEEGAPCTAIR in human A-375 cells at 0.05 uM by KiNativ Profiling analysis relative to control. In kind it is cell-based.
Sequence of Cyclin-dependent kinase 18 (Homo sapiens) (Q07002 whole entry): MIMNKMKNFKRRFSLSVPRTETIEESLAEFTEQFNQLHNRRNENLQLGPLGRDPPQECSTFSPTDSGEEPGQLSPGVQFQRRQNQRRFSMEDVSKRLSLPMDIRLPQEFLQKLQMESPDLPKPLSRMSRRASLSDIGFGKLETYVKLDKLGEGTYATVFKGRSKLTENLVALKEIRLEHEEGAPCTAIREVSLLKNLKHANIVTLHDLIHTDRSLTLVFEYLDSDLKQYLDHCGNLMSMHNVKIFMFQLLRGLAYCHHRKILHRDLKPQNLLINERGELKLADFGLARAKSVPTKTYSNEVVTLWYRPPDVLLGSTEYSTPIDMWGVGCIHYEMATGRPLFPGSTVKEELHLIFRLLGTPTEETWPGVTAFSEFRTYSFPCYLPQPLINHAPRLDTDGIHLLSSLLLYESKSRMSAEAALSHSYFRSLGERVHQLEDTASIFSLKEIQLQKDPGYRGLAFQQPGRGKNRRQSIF
Assay [5] has as its target Mitogen-activated protein kinase kinase kinase 1 (Homo sapiens) (UniProt Q13233). The experiment in a line: Inhibition of MAP3K1 (unknown origin) at 1 uM by Ambit Kinomescan binding assay relative to control; values are per cent of control.
Assay [6] concerns the target Mitogen-activated protein kinase 4 (Homo sapiens) (UniProt P31152). Kind of assay: Inhibition of ERK4 (unknown origin) at 1 uM by Ambit Kinomescan binding assay relative to control.
Assay [7] addresses Membrane-associated tyrosine- and threonine-specific cdc2-inhibitory kinase (Homo sapiens) (UniProt Q99640). Kind of assay: Inhibition of PKMYT1 (unknown origin) at 1 uM by Ambit Kinomescan binding assay relative to control.
Assay [8] has as its target 5'-AMP-activated protein kinase catalytic subunit alpha-1 (Homo sapiens) (UniProt Q13131). The experiment in a line: Inhibition of AMPK-alpha1 (unknown origin) at 1 uM by Ambit Kinomescan binding assay relative to control.
In assay [9] the target is Serine/threonine-protein kinase RIO1 (Homo sapiens) (UniProt Q9BRS2). The experiment in a line: Inhibition of RIOK1 (unknown origin) at 10 uM by Ambit Kinomescan binding assay.
In assay [10] the target is Mitogen-activated protein kinase kinase kinase kinase 4 (Homo sapiens, UniProt O95819). Kind of assay: Inhibition of MAP4K4 (unknown origin) at 10 uM by Ambit Kinomescan binding assay relative to control.
Assay [11] has as its target Calcium/calmodulin-dependent protein kinase type II subunit alpha (Homo sapiens) (UniProt Q9UQM7). The experiment in a line: Inhibition of CAMK2A (unknown origin) at 10 uM by Ambit Kinomescan binding assay.
For assay [12], the target named is Phosphatidylinositol 4,5-bisphosphate 3-kinase catalytic subunit beta isoform (Homo sapiens) (UniProt P42338). Kind of assay: Inhibition of PIK3CB ATP labeling site in human Huh-7 cells at 1 uM by KiNativ Profiling analysis relative to control. In kind it is cell-based.
Assay [13] has as its target Misshapen-like kinase 1 (Homo sapiens) (UniProt Q8N4C8). The experiment in a line: Inhibition of MINK (unknown origin) at 10 uM by Ambit Kinomescan binding assay.
Assay [14] addresses Microtubule-associated serine/threonine-protein kinase 2 (Homo sapiens) (UniProt Q6P0Q8). Kind of assay: Inhibition of MAST2 Lys2 labeling site in human A-375 cells at 5 uM by KiNativ Profiling analysis relative to control. In kind it is cell-based.
In assay [15] the target is Protein kinase C beta type (Homo sapiens) (UniProt P05771). Kind of assay: Inhibition of PKCb Lys2 labeling site in human Huh-7 cells at 1 uM by KiNativ Profiling analysis relative to control. The format is cell-based.
Assay [16] has as its target T2, Serine/threonine-protein kinase greatwall (Homo sapiens) (UniProt Q96GX5).
T2 sequence (whole entry): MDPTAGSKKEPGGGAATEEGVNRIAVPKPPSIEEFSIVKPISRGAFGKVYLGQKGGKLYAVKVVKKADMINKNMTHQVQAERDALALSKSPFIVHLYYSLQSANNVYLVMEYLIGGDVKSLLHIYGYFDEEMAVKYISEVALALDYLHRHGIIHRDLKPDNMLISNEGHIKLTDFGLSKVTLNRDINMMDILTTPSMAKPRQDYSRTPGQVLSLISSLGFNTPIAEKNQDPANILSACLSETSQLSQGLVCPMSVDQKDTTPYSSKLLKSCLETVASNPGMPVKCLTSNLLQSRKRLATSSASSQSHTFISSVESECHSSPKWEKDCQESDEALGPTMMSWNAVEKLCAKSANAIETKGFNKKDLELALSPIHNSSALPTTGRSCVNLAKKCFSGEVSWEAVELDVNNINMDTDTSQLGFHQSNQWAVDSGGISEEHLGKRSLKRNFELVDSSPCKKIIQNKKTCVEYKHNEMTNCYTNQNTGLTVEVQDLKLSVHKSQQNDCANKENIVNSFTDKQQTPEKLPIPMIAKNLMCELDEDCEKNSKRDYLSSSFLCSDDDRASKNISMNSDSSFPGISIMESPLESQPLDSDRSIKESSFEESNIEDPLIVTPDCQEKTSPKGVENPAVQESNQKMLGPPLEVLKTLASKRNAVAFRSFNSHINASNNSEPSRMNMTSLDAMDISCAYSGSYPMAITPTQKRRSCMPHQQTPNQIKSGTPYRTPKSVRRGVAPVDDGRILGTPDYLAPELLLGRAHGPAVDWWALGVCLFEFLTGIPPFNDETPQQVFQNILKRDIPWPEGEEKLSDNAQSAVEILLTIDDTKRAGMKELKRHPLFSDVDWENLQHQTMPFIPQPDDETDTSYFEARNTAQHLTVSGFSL
The experiment in a line: Inhibition of MASTL Lys2 labeling site in human Huh-7 cell lysate at 1 uM by KiNativ Profiling analysis relative to control. The format is subcellular.

Assay [17] has as its target STE20-like serine/threonine-protein kinase (Homo sapiens) (UniProt Q9H2G2). Kind of assay: Inhibition of SLK Lys2 labeling site harbouring IIHRDLKAGNILFTLDGDIK in human Huh-7 cell lysate at 1 uM by KiNativ Profiling analysis relative to control. The format is subcellular.
Assay [18] deals with 1-phosphatidylinositol 3-phosphate 5-kinase (Homo sapiens) (UniProt Q9Y2I7). The experiment in a line: Inhibition of PIP5K3 ATP labeling site in human Huh-7 cell lysate at 1 uM by KiNativ Profiling analysis relative to control. The format is subcellular.

Calls of active or inactive are those of the source. No cut-off for these calls is given here.

Sequence of 5'-AMP-activated protein kinase catalytic subunit alpha-1 (Homo sapiens) (Q13131 whole entry, looked up): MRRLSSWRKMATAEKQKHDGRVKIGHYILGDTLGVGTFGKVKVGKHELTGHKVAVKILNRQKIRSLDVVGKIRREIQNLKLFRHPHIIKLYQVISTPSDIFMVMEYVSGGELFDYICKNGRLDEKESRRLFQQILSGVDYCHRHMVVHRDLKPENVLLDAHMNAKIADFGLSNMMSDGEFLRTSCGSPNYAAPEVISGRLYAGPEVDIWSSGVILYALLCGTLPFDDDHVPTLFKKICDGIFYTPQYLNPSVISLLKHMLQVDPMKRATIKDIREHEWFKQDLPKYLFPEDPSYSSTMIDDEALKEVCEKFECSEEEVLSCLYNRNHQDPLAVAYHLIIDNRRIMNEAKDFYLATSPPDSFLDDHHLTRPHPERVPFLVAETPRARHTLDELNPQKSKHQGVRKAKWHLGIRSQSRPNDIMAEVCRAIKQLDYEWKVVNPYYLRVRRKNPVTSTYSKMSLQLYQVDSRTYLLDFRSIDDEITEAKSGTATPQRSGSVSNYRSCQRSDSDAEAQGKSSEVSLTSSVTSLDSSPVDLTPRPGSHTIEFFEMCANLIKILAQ
Sequence of Calcium/calmodulin-dependent protein kinase type II subunit alpha (Homo sapiens) (Q9UQM7 whole entry, canonical isoform): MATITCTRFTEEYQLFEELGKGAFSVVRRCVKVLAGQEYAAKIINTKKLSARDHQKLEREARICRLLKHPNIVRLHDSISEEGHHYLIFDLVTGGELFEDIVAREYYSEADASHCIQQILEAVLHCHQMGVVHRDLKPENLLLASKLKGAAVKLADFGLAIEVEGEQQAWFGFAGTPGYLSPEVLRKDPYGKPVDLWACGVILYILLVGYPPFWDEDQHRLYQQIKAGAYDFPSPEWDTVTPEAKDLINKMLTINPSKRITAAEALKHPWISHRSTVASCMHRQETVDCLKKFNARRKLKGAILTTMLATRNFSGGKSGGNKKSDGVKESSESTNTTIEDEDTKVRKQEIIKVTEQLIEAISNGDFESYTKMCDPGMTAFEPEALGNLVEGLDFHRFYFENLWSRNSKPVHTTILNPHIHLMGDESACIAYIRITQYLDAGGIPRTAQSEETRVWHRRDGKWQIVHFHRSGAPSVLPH
Sequence of STE20-like serine/threonine-protein kinase (Homo sapiens) (Q9H2G2 whole entry, looked up): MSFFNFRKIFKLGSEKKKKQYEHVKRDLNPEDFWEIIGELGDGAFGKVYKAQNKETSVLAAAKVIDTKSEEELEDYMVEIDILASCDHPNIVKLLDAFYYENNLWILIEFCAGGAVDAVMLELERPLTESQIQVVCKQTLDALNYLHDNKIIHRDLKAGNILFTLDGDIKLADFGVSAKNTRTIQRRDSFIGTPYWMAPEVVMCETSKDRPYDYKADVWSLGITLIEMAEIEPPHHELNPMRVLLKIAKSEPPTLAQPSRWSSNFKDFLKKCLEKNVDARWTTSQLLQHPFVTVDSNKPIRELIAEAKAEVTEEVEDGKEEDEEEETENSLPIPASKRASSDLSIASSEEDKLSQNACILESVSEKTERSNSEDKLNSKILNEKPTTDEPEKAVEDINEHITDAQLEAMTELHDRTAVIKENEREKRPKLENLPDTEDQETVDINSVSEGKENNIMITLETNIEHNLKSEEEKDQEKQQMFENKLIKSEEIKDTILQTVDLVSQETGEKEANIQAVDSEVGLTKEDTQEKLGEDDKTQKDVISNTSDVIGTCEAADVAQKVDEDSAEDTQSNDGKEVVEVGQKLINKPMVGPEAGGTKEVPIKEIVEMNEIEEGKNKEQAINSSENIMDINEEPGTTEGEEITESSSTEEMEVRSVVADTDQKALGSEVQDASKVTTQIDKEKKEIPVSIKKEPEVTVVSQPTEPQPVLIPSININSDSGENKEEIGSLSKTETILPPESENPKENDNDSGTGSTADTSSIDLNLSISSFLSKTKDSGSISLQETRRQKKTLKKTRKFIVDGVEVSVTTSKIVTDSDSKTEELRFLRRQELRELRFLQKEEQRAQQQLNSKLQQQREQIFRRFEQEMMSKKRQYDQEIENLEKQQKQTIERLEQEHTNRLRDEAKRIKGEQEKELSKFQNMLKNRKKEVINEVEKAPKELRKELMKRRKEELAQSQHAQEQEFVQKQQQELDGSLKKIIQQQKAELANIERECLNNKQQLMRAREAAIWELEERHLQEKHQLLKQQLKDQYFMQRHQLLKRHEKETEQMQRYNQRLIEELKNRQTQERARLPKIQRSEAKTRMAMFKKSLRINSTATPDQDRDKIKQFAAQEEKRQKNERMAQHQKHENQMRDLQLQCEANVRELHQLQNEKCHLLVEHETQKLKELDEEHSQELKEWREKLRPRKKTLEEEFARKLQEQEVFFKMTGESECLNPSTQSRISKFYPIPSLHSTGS
Sequence of Membrane-associated tyrosine- and threonine-specific cdc2-inhibitory kinase (Homo sapiens) (Q99640 whole entry): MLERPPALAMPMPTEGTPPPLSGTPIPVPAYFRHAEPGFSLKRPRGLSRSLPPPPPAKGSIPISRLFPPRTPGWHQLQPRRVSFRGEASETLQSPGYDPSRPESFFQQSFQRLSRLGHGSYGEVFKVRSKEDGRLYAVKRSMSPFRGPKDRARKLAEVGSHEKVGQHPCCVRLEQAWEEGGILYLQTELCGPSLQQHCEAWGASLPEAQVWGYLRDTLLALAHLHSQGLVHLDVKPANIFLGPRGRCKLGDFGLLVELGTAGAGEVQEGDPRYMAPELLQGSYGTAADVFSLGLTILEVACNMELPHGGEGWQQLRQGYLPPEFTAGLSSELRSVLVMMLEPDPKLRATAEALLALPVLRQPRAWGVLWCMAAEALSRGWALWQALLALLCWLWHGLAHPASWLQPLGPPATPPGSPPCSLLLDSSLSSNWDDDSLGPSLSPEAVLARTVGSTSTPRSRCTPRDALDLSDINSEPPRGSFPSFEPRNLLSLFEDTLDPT
Sequence of Mitogen-activated protein kinase 4 (Homo sapiens) (P31152 whole entry): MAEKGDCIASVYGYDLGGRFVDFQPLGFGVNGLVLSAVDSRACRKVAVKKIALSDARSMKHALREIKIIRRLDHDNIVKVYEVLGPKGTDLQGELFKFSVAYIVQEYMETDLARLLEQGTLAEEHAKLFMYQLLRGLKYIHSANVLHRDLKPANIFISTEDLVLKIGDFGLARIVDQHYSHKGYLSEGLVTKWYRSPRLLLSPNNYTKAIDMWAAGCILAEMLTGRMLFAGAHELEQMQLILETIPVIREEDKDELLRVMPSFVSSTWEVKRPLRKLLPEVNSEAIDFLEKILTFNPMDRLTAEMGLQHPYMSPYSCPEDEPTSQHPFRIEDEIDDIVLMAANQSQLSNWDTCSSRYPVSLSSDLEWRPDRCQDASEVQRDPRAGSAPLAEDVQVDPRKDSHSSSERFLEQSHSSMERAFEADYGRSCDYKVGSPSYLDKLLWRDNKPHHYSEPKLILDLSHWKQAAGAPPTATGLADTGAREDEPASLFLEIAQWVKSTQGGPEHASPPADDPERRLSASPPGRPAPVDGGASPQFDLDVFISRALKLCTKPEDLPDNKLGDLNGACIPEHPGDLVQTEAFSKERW
Sequence of Mitogen-activated protein kinase 14 (Q16539 whole entry): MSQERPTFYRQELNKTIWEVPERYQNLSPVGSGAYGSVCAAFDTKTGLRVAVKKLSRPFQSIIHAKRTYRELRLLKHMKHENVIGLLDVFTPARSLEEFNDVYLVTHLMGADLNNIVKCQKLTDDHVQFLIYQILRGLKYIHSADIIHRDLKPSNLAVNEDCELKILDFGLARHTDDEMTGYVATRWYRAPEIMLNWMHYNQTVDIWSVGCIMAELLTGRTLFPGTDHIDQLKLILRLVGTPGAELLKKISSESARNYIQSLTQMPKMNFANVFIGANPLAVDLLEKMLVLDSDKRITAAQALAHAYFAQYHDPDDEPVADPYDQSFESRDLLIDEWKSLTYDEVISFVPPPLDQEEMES

What is called inhibition is the relative decrease from the control value, in per cent. Regarding `CCN1CCN(Cc2ccc(NC(=O)c3ccc(C)c(/C=C/c4cnc5[nH]ccc5c4OC)c3)cc2C(F)(F)F)CC1`, the inhibition in assay [1] amounted to 52.4%; in assay [3], 100%; in assay [4], 2.7%; in [6], 77%; in [7] it was 68%; in assay [8] it was 25%. The residual activity in assay [2] came out at 83%; in [5], 100%.

`CCN1CCN(Cc2ccc(NC(=O)c3ccc(C)c(Oc4ccnc5[nH]ccc45)c3)cc2C(F)(F)F)CC1`: the inhibition entry in assay [9], in assay [11], in assay [12] and in assay [13] was “inactive” in each case. Also, the inhibition is 0% in assay [10] and -6.1% in assay [14].

Take `CNc1cc(Oc2cc(C(=O)Nc3cc(N4CCN(C)CC4)cc(C(F)(F)F)c3)ccc2C)ncn1`: the inhibition in assay [15] is 64.8%; in [16], 26%; in assay [17], 24.8%; in assay [18], 0.7%.
